Measured values: patent US4960698A, “Process for producing L-654,040, antibacterial agent” (Merck & Co., Inc., priority 1989, dated 1990)
Values after ≈ are worked out from the molar mass of the structure shown. “Also recorded” adds a separate entry of the source.

Key:
Eubcterium limosum 3344 = experiment: agar dilution MIC, anaerobic, Wilkens-Chalgren agar; type: cell-based; details: 10^6 cfu/spot, 35° C., 48 hours
Description: (a) Wilkens-Chalgren agar was used instead of antagonist-free medium (Roche);
(b) The inoculum/spot was about 10^6 instead of about 10^4 ;
(c) The incubation period was for 48 hours, not 24 hours; and
(d) Incubations were performed under anaerobic conditions.
*Agar dilution assay, multipoint inoculator, WilkensChalgren agar,
inoculum 10^6 cfu/spot, incubation at 35° C. for 48 hours.

[1] = tested on: Bordetella bronchiseptica (3771); experiment: protection and survival of infected mice; details: intraperitoneal, 160 mg/kg ×2
E. coli DC2 4353 = experiment: agar dilution MIC, antagonist-free medium (Roche); details: E. coli permeability mutant, Table II
[2] = tested on: Pasteurella multocida (4678); experiment: protection and survival of infected mice; details: intraperitoneal; for survival time: 160 mg/kg ×2
[3] = mouse, in vivo
Staph. aureus 2865 = experiment: agar dilution MIC, antagonist-free medium (Roche); details: Table II
Pasteurella multocida = experiment: combined therapy with erythromycin in infected mice; details: intraperitoneal, vs erythromycin alone
numerous microorganisms = experiment: in vitro antibacterial potency (general statement); type: cell-based
solubility in water = details: water solutions for injection

Compound	MIC (Eubcterium limosum 3344)	survival time ([1]; 160 mg/kg)	survival time ([1]; listed as L-654.040, 160 mg/kg)	sensitivity of strain (E. coli DC2 4353)	statistical significance of prolonged survival (in words) [2]	survival time ([2]; 160 mg/kg)	survival time ([2]; listed as L-654.040, 160 mg/kg)	tolerability in uninfected mice [3]	sensitivity of strain (Staph. aureus 2865)	efficacy of combined therapy with erythromycin (Pasteurella multocida)	potency in vitro (numerous microorganisms)	solubility in water (in words) (solubility in water)
CO[C@@]1(NC(=O)Cc2cccs2)C(=O)N2C(C(=O)O)=C(COC(N)=O)CS[C@@H]21 [CEFOXITIN, Cefoxitin, reference compound]	1 µg/mL (≈ 2.34 µM)	–	–	–	–	–	–	–	–	–	–	–
C[C@H](CNC(=O)[C@H]1N=C(c2cccc(O)c2O)O[C@@H]1C)C(=O)N[C@@H]1CCCN(O)C1=O [L-654,040]	128 µg/mL (≈ 295 µM)	prolongation of survival time was observed	did prolong the survival time	sensitive	statistically significant at one level in two Pasteurella tests	prolongation of survival time was observed; also recorded: increases survival time	did prolong the survival time	tolerated by uninfected mice	sensitive	slightly more effective than erythromycin alone but not to a degree considered to be synergistic	showing potency in vitro against numerous microorganisms	limited solubility
